Laboratory results reported in patent US6251948A, “Tri-and tetra-substituted guanidines and their use as excitatory amino acid antagonists” (State of Oregon, acting by and through the Oregon State …, priority 1995, dated 2001).
Where a name gives a salt, the structure may show the parent alone.

Tests used:
[1] = system: lesions caused by NMDA injection; assay: In vivo neurotoxicity assay: NMDA-induced lesion (model of McDonald et al.); design: species or system rat; settings: 0.1 to 100 umol/kg of body weight; intraperitoneal, 15 minutes following cerebral NMDA injection
Text: In the in vivo neurotoxicity studies, the experimental model of McDonald, J. W., et al., (In: Sigma and Phencyclidine-like Compounds as Molecular Probes in Biology, Ed. Domino, E. F., and Kamenka, J.-M., pp. 697-707 (1988), NPP Books, Ann Arbor, Mich.) can be employed. In this model, an NMDA injection into one cerebral hemisphere of a rat pup causes brain injury which resembles the lesion produced by hypoxia-ischemia. The ability of test compounds to limit the NMDA-induced lesion is a measure of their neuroprotective properties; and, since the compounds are administered intraperitoneally, the model also provides information about a compound's ability to cross the blood-brain barrier.
The experimental model of McDonald, J. W., et al., supra, was employed with the single alteration in protocol of an intraperitoneal injection of the test compound 15 minutes following, rather than preceding, the cerebral NMDA injection.

[2] = system: sigma brain receptor; settings: Weber et al. 1986; U.S. Pat. No. 4,709,094; cited from earlier work
[3] = system: Korsakoff's disease; settings: pretreatment; rat model; cited from earlier work

SMILES: CCc1cccc(N(C)C(=N)Nc2cccc3ccccc23)c1 [Compound VII, N-(1-Naphthyl)-N'-(m-ethylphenyl)-N'-methylquanidine Hydrochloride]
- protection against the lesions caused by NMDA injection [1]: protect against the lesions caused by NMDA injection

SMILES: Cc1ccccc1NC(=N)Nc1ccccc1C [DTG, 1,3 di-o-tolyl-guanidine]
- selectivity for the sigma receptor [2]: strong selectivity for the sigma receptor

SMILES: C[C@]12N[C@H](Cc3ccccc31)c1ccccc12 [MK-801, (+)-5-methyl-10,11-dihydro-5H-dibenzo[a,d]cycloheptene-5,10-imine]
- extent of cell loss, hemorrhages and amino acid changes [3]: markedly attenuates the extent of cell loss, hemorrhages and amino acid changes
